Data as given in patent US11845742B2, “Therapeutic compounds and methods to treat infection” (priority 2017, dated 2023).
Converted amounts (≈) assume the structure as drawn. Like-named read-outs stand apart in the source and are kept apart here.

Assays:
[1] = tested on: P. Aeruginosa PAO1; assay: Intrinsic MIC assay (broth microdilution), P. aeruginosa PAO1; assay type: cell-based, Pseudomonas aeruginosa; details: for MIC: Pseudomonas aeruginosa, read-out: Intrinsic MIC; for Intrinsic MIC, second value printed in parentheses: not explained
Procedure: (§1) MIC assays were conducted in accordance with Clinical and Laboratory Standards Institute (CLSI) guidelines for broth microdilution.
(§2) The intrinsic MIC of the experimental EPIs was tested with the method described. The 2-fold serial dilution begins with 100 μg/mL of tested compound in the first column of the 96-well plates. The following Gram-negative bacterial strains were included in these assays: • Escherichia coli ATCC 25922 • Klebsiella pneumoniae ATCC 13883 and ATCC 10031 • Pseudomonas aeruginosa ATCC 27853. • Pseudomonas aeruginosa PAO1 • Acinetobacter baumannii ATCC 19606

[2] = tested on: P. Aeruginosa PAO1; assay: MIC assay in the presence of a bacterial efflux pump inhibitor (EPI), P. aeruginosa PAO1; assay type: cell-based, Pseudomonas aeruginosa; details: in the presence of 12.5 μg/ml of N-(((2S,4R)-4-(aminomethyl)pyrrolidin-2-yl)methyl)-6-(4-fluorophenyl)-1H-indole-2-carboxamide
Procedure: The ability of a compound to produce an antibiotic effect can be determined using a method as described in Example 11. Data for representative compounds used in combination with the bacterial efflux pump inhibitor (EPI) N-(((2S,4R)-4-(aminomethyl)pyrrolidin-2-yl)methyl)-6-(4-fluorophenyl)-1H-indole-2-carboxamide is shown in Table 1.
as §1
The EPI assay for the purposes of these studies represents a MIC assay in which the MIC of the antibiotic against the bacteria is tested in the presence of an experimental efflux pump inhibitor (EPI). The highest concentration of the EPI present in the assay typically is ½ of the intrinsic MIC of the compound. […] Using serial dilutions of the EPI, its enhancement of antibiotic activity was then evaluated. The relative EPI activity was decided by comparing the MIC of the antibiotic in the presence of the EPI compound with the intrinsic MIC of the antibiotic alone. For comparative purposes, we generally used EPIs at concentration of 12.5 and 6.25 μg/ml against varying concentration of our test antibiotic.

[3] = tested on: E. coli ATCC 25922; assay: Intrinsic MIC assay (broth microdilution), E. coli; assay type: cell-based, Escherichia coli; details: for MIC: Escherichia coli
Procedure: as §1, §2

[4] = tested on: K. pneumoniae ATCC 10031; assay: Intrinsic MIC assay (broth microdilution), K. pneumoniae; assay type: cell-based, Klebsiella pneumoniae; details: for MIC: Klebsiella pneumoniae
Procedure: as §1, §2

[5] = tested on: A. baumannii ATCC 19606; assay: Intrinsic MIC assay (broth microdilution), A. baumannii; assay type: cell-based, Acinetobacter baumannii; details: for MIC: Acinetobacter baumannii
Procedure: as §1, §2

[6] = P. Aeruginosa PAO1, without EPI
[7] = ATCC25922, E. coli ATCC 25922, read-out: Intrinsic MIC
[8] = ATCC10031, K. pneumoniae ATCC 10031, read-out: Intrinsic MIC
[9] = ATCC19606, A. baumannii ATCC 19606, read-out: Intrinsic MIC
[10] = ATCC25922, read-out: Intrinsic MIC
[11] = ATCC10031, read-out: Intrinsic MIC
[12] = ATCC19606, read-out: Intrinsic MIC
[13] = 18 h, P. Aeruginosa PAO1, without EPI

| Intrinsic MIC [1, 6] | MIC in the Presence of EPI* [2] | MIC [3, 7] | MIC [4, 8] | MIC [5, 9] | MIC [1, 13] | Intrinsic MIC, second value printed in parentheses [1, 6] | Compound | Intrinsic MIC ([3]; E. coli ATCC 25922) | Intrinsic MIC ([4]; K. pneumoniae ATCC 10031) | Intrinsic MIC ([5]; A. baumannii ATCC 19606) | MIC ([1]; PAO1, 18 h) | MIC [3, 10] | MIC [4, 11] | MIC [5, 12] |
| --- | --- | --- | --- | --- | --- | --- | --- | --- | --- | --- | --- | --- | --- | --- |
| 128 µg/mL | 8 µg/mL | 128 µg/mL (≈ 535 µM) | 64 µg/mL (≈ 268 µM) | 128 µg/mL (≈ 535 µM) | – | – | CC(N)c1cc2cc(Br)ccc2[nH]1 (stereo not shown) [Example 1, 1-(5-Bromo-1H-indol-2-yl)ethan-1-amine] | – | – | – | – | – | – | – |
| – | 64 µg/mL | 256 µg/mL (≈ 1010 µM) | 128 µg/mL (≈ 506 µM) | 64 µg/mL (≈ 253 µM) | > 256 µg/mL | – | CNC(C)c1cc2cc(Br)ccc2[nH]1 (stereo not shown) [Example 3, 1-(5-Bromo-1H-indol-2-yl)-N-methylethan-1-amine] | – | – | – | – | – | – | – |
| – | 128 µg/mL | > 256 µg/mL | > 256 µg/mL | > 256 µg/mL | > 256 µg/mL | – | CC(N)c1cc2ccccc2[nH]1 (stereo not shown) [Example 4, 1-(1H-Indol-2-yl)ethan-1-amine] | – | – | – | – | – | – | – |
| 256 µg/mL | 16 µg/mL | > 256 µg/mL | > 256 µg/mL | > 256 µg/mL | – | – | CC(N)c1cc2cc(F)ccc2[nH]1 (stereo not shown) [Example 7, 1-(5-Fluoro-1H-indol-2-yl)ethan-1-amine] | – | – | – | – | – | – | – |
| – | 256 µg/mL | > 256 µg/mL | > 256 µg/mL | 256 µg/mL (≈ 1350 µM) | > 256 µg/mL | – | COc1ccc2[nH]c(C(C)N)cc2c1 (stereo not shown) [Example 8, 1-(5-Methoxy-1H-indol-2-yl)ethan-1-amine] | – | – | – | – | – | – | – |
| – | 16 µg/mL | 128 µg/mL (≈ 561 µM) | 64 µg/mL (≈ 280 µM) | 64 µg/mL (≈ 280 µM) | > 256 µg/mL | – | CC(N)c1cc2cc(C(F)(F)F)ccc2[nH]1 (stereo not shown) [Example 9, 1-(5-(Trifluoromethyl)-1H-indol-2-yl)ethan-1-amine] | – | – | – | – | – | – | – |
| – | 32 µg/mL | 256 µg/mL (≈ 1070 µM) | 128 µg/mL (≈ 535 µM) | 128 µg/mL (≈ 535 µM) | > 256 µg/mL | – | CC(N)c1cc2ccc(Br)cc2[nH]1 (stereo not shown) [Example 10, 1-(6-Bromo-1H-indol-2-yl)ethan-1-amine] | – | – | – | – | – | – | – |
| – | 256 µg/mL | > 256 µg/mL | > 256 µg/mL | > 256 µg/mL | > 256 µg/mL | – | CC(c1cc2ccccc2[nH]1)N(C)C (stereo not shown) [Example 12, 1-(1H-Indol-2-yl)-N,N-dimethylethan-1-amine] | – | – | – | – | – | – | – |
| – | 64 µg/mL | 256 µg/mL (≈ 958 µM) | 256 µg/mL (≈ 958 µM) | 128 µg/mL (≈ 479 µM) | 256 µg/mL (≈ 958 µM) | – | CC(c1cc2cc(Br)ccc2[nH]1)N(C)C (stereo not shown) [Example 16, 1-(5-Bromo-1H-indol-2-yl)-N,N-dimethylethan-1-amine] | – | – | – | – | – | – | – |

Second part, the compound before the results:

| Compound | Intrinsic MIC [1, 6] | MIC in the Presence of EPI* [2] | MIC [3, 7] | MIC [4, 8] | MIC [5, 9] | MIC [1, 13] | Intrinsic MIC, second value printed in parentheses [1, 6] | Intrinsic MIC ([3]; E. coli ATCC 25922) | Intrinsic MIC ([4]; K. pneumoniae ATCC 10031) | Intrinsic MIC ([5]; A. baumannii ATCC 19606) | MIC ([1]; PAO1, 18 h) | MIC [3, 10] | MIC [4, 11] | MIC [5, 12] |
| --- | --- | --- | --- | --- | --- | --- | --- | --- | --- | --- | --- | --- | --- | --- |
| 1-(5-Bromo-1H-indol-2-yl)ethane-1,2-diamine [Example 6] | 256 µg/mL | 128 µg/mL | – | – | – | – | – | 128 µg/mL | 64 µg/mL | 128 µg/mL | – | – | – | – |
| CCCCC(N)c1cc2cc(Br)ccc2[nH]1 (stereo not shown) [Example 2, 1-(5-Bromo-1H-indol-2-yl)pentan-1-aminium chloride] | – | 64 µg/mL | – | – | – | – | – | – | – | – | > 256 µg/mL | 16 µg/mL | 16 µg/mL | 32 µg/mL |
| CC(N)c1cc2cc(Br)ccc2n1C (stereo not shown) [Example 5, 1-(5-Bromo-1-methyl-1H-indol-2-yl)ethan-1-amine] | – | 64 µg/mL | 128 µg/mL (≈ 506 µM) | 64 µg/mL (≈ 253 µM) | 128 µg/mL (≈ 506 µM) | > 256 µg/mL | – | – | – | – | – | – | – | – |
| CC(N)c1cc2cc(OC(F)(F)F)ccc2[nH]1 (stereo not shown) [Example 11, 1-(5-(Trifluoromethoxy)-1H-indol-2-yl)ethan-1-amine] | – | 64 µg/mL | 128 µg/mL (≈ 524 µM) | 64 µg/mL (≈ 262 µM) | 64 µg/mL (≈ 262 µM) | > 256 µg/mL | – | – | – | – | – | – | – | – |
| NCc1cc2ccc(Br)cc2[nH]1 [Example 13, (6-Bromo-1H-indol-2-yl)methanamine] | – | 16 µg/mL | 256 µg/mL (≈ 1140 µM) | 256 µg/mL (≈ 1140 µM) | 128 µg/mL (≈ 569 µM) | 64 µg/mL (≈ 284 µM) | – | – | – | – | – | – | – | – |
| NCc1cc2cc(Br)ccc2[nH]1 [Example 14, (5-Bromo-1H-indol-2-yl)methanamine] | – | 8 µg/mL | 128 µg/mL (≈ 569 µM) | 64 µg/mL (≈ 284 µM) | 64 µg/mL (≈ 284 µM) | 128 µg/mL (≈ 569 µM) | – | – | – | – | – | – | – | – |
| CC(N)c1cc2c(Cl)cc(Cl)cc2[nH]1 (stereo not shown) [Example 15, 1-(4,6-Dichloro-1H-indol-2-yl)ethan-1-amine] | 256 µg/mL | 16 µg/mL | 128 µg/mL (≈ 559 µM) | 64 µg/mL (≈ 279 µM) | 32 µg/mL (≈ 140 µM) | – | – | – | – | – | – | – | – | – |
| CC(N)c1cc2cc(F)c(F)cc2[nH]1 (stereo not shown) [Example 17, 1-(5,6-Difluoro-1H-indol-2-yl)ethan-1-amine] | 256 µg/mL | 8 µg/mL | 256 µg/mL (≈ 1300 µM) | 128 µg/mL (≈ 652 µM) | 128 µg/mL (≈ 652 µM) | – | – | – | – | – | – | – | – | – |
| NC1CCc2c1[nH]c1ccc(Br)cc21 (stereo not shown) [Example 18, 7-Bromo-1,2,3,4-tetrahydrocyclopenta[b]indol-3-amine] | – | 2 µg/mL | 32 µg/mL (≈ 127 µM) | 32 µg/mL (≈ 127 µM) | 64 µg/mL (≈ 255 µM) | 128 µg/mL (≈ 510 µM) | – | – | – | – | – | – | – | – |
| NC1CCCCc2c1[nH]c1ccc(Br)cc21 (stereo not shown) [Example 19, 2-Bromo-5,6,7,8,9,10-hexahydrocyclohepta[b]indol-6-amine] | – | 4 µg/mL | 16 µg/mL (≈ 57.3 µM) | 16 µg/mL (≈ 57.3 µM) | 16 µg/mL (≈ 57.3 µM) | 128 µg/mL (≈ 458 µM) | – | – | – | – | – | – | – | – |
| NC1CCCCc2c1[nH]c1ccc(Cl)c(Cl)c21 (stereo not shown) [Example 20, 1,2-Dichloro-5,6,7,8,9,10-hexahydrocyclohepta[b]indol-6-amine hydrochloric acid] | – | 1 µg/mL | – | – | – | – | – | – | – | – | 32 µg/mL (≈ 119 µM) | 8 µg/mL (≈ 29.7 µM) | 2 µg/mL (≈ 7.43 µM) | 8 µg/mL (≈ 29.7 µM) |
| CC(NCCCN)c1cc2cc(Br)ccc2[nH]1 (stereo not shown) [Example 24, N^1-(1-(5-Bromo-1H-indol-2-yl)ethyl)propane-1,3-diamine] | – | – | – | 64 µg/mL (≈ 216 µM) | 256 µg/mL (≈ 864 µM) | 64 µg/mL (≈ 216 µM) | 128 µg/mL | – | – | – | – | – | – | – |
| CC(NCCCNC(=O)c1ccc(Cl)s1)c1cc2cc(Br)ccc2[nH]1 (stereo not shown) [Example 27, N-(3-((1-(5-Bromo-1H-indol-2-yl)ethyl)amino)propyl)-5-chlorothiophene-2-carboxamide] | – | 64 µg/mL | – | 8 µg/mL (≈ 18.1 µM) | – | 32 µg/mL (≈ 72.6 µM) | > 256 µg/mL | – | – | – | – | – | – | – |
| NCCCNC1CCCCc2c1[nH]c1ccc(Br)cc21 (stereo not shown) [Example 28, N^1-(2-Bromo-5,6,7,8,9,10-hexahydrocyclohepta[b]indol-6-yl)propane-1,3-diamine] | – | – | 16 µg/mL (≈ 47.6 µM) | 8 µg/mL (≈ 23.8 µM) | 32 µg/mL (≈ 95.2 µM) | 64 µg/mL (≈ 190 µM) | 32 µg/mL | – | – | – | – | – | – | – |
| NCCCNC1CCc2c1[nH]c1ccc(Br)cc21 (stereo not shown) [Example 29, N^1-(7-Bromo-1,2,3,4-tetrahydrocyclopenta[b]indol-3-yl)propane-1,3-diamine] | – | – | 64 µg/mL (≈ 208 µM) | 32 µg/mL (≈ 104 µM) | 256 µg/mL (≈ 831 µM) | 64 µg/mL (≈ 208 µM) | 128 µg/mL | – | – | – | – | – | – | – |
